Reference: PubChem BioAssay (NCI)
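Compound exposure: 48 hours, 5 concentrations, 96-well plates. At the TGI there is no net growth.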

How the values were obtained:
Experiment in all cases: NCI tumour cell line growth inhibition, 48 h
A549 NSCLC = system: A549 NSCLC
COLO 205 colon = system: COLO 205 colon
HCT-116 colon = system: HCT-116 colon
HOP-92 NSCLC = system: HOP-92 NSCLC
HS 578T breast = system: HS 578T breast
MDA-N = system: MDA-N
NCI-H226 lung = system: NCI-H226 lung
NCI-H522 lung = system: NCI-H522 lung
SK-MEL-2 melanoma = system: SK-MEL-2 melanoma
SK-MEL-28 melanoma = system: SK-MEL-28 melanoma
SW-620 colon = system: SW-620 colon
TK-10 renal = system: TK-10 renal
UO-31 renal = system: UO-31 renal

Compound | TGI (A549 NSCLC) | TGI (COLO 205 colon) | TGI (HCT-116 colon) | TGI (HOP-92 NSCLC) | TGI (HS 578T breast) | TGI (MDA-N) | TGI (NCI-H226 lung) | TGI (NCI-H522 lung) | TGI (SK-MEL-2 melanoma) | TGI (SK-MEL-28 melanoma) | TGI (SW-620 colon) | TGI (TK-10 renal) | TGI (UO-31 renal)
CNc1nc2c(C)ccc3[nH]c(N(C)C)nc3c-2n1 | > 100 µM | > 100 µM | > 100 µM | > 100 µM | > 100 µM | > 100 µM | > 100 µM | > 100 µM | > 100 µM | > 100 µM | > 100 µM | > 100 µM | > 100 µM
COc1cc(C(=O)OCCn2[nH]c(-c3ccc(Cl)cc3)nc2=S)cc(OC)c1OC | > 100 µM | > 100 µM | > 100 µM | 95.2 µM | > 100 µM | > 100 µM | > 100 µM | > 100 µM | > 100 µM | > 100 µM | > 100 µM | > 100 µM | 24.2 µM
COC(=O)c1ccc(C)cc1CC1Cc2c(C)cccc2C1=O (stereo not drawn) | > 60.5 µM | 17 µM | 15.4 µM | 46.8 µM | 34 µM | 4.82 µM | 37.4 µM | 22.8 µM | 17.5 µM | 84.7 µM | > 48.7 µM | > 54.6 µM | 66.4 µM
O=S(=O)(/N=C(\NO)Nc1ccc(Cl)cc1)C1CC=C(c2ccon2)S1 (stereo not drawn) | > 100 µM | 35 µM | > 100 µM | > 85.5 µM | > 66.3 µM | > 100 µM | > 79.8 µM | 12.8 µM | 55.1 µM | > 100 µM | > 100 µM | > 100 µM | 81.6 µM
NC(=O)SCC(=O)Nc1ccc2ncccc2c1 | > 100 µM | > 100 µM | > 100 µM | > 100 µM | > 100 µM | > 100 µM | > 100 µM | 69.3 µM | > 100 µM | > 100 µM | > 100 µM | > 100 µM | > 100 µM
COc1ccc(N(C(=O)NCCO)c2ccccc2)cc1 | > 100 µM | > 100 µM | > 100 µM | > 100 µM | > 100 µM | > 100 µM | > 100 µM | > 100 µM | > 100 µM | > 100 µM | > 100 µM | > 100 µM | > 100 µM
CCOP(C)(=O)/C(Cc1ccc(OC)c(OC)c1)=N\O (stereo not drawn) | > 100 µM | > 100 µM | > 100 µM | > 100 µM | > 100 µM | > 100 µM | > 100 µM | > 100 µM | > 100 µM | > 100 µM | > 100 µM | > 100 µM | > 100 µM
Cc1[nH]c(=O)nc(N(CCO)/N=C/c2ccc(Cl)cc2)c1C(=O)Nc1ccc(Cl)cc1 | > 100 µM | > 100 µM | > 100 µM | > 100 µM | > 100 µM | > 100 µM | > 100 µM | > 100 µM | > 100 µM | > 100 µM | > 100 µM | > 100 µM | > 100 µM
CCCCCCCCCCCCCCCCOc1ccc(/C=C/C2=[N+](CCCl)CCO2)cc1 | > 100 µM | > 100 µM | > 100 µM | > 100 µM | > 100 µM | > 100 µM | > 100 µM | > 100 µM | > 100 µM | > 100 µM | > 100 µM | > 100 µM | > 100 µM
N#CCCN(CCC#N)c1ccc(C(N=Nc2ccc(Cl)cc2)=Nc2ccc(Cl)cc2)cc1 | 41 µM | 31.9 µM | 36.5 µM | 38.8 µM | 35.2 µM | 40.8 µM | 36.7 µM | 32.5 µM | 25 µM | > 100 µM | 34.3 µM | 33.5 µM | 29.4 µM
Cc1nn(-c2ccccc2)c2nc3ccc(Cl)cc3c(-c3ccccc3)c12 | > 100 µM | > 100 µM | > 100 µM | > 100 µM | > 100 µM | > 100 µM | > 100 µM | > 100 µM | > 100 µM | > 100 µM | > 100 µM | > 100 µM | > 100 µM
